Experimental data from paper PMC6530635, “A Novel Single-Site Mutation in the Catalytic Domain of Protoporphyrinogen Oxidase IX (PPO) Confers Resistance to PPO-Inhibiting Herbicides” (Frontiers in Plant Science, 2019).

How the values were obtained:
Type in all cases: biochemical
[1] = tested on: recombinant Amaranthus tuberculatus PPO2 G399A
[2] = tested on: recombinant Amaranthus tuberculatus PPO2 ΔG210
[3] = tested on: recombinant Amaranthus tuberculatus PPO2 R128L

Compound: C#CCN(C)c1c(C#N)cnn1-c1nn2c(c1Cl)CCCC2 [Pyraclonil]
- Resistance factor G399A (IC50 mutant / IC50 sensitive PPO2) [1]: 799
- Resistance factor ΔG210 (IC50 mutant / IC50 sensitive PPO2) [2]: 782
- Resistance factor R128L (IC50 mutant / IC50 sensitive PPO2) [3]: 0

Compound: Cc1nn(-c2cc(NS(C)(=O)=O)c(Cl)cc2Cl)c(=O)n1C(F)F [Sulfentrazone]
- Resistance factor G399A (IC50 mutant / IC50 sensitive PPO2) [1]: 282

Compound: CCOC(=O)COc1cc(-c2nn(C)c(OC(F)F)c2Cl)c(F)cc1Cl [Pyraflufen-ethyl]
- Resistance factor G399A (IC50 mutant / IC50 sensitive PPO2) [1]: 11816
- Resistance factor ΔG210 (IC50 mutant / IC50 sensitive PPO2) [2]: 1083
- Resistance factor R128L (IC50 mutant / IC50 sensitive PPO2) [3]: 1

Compound: COC(=O)CSc1cc(/N=c2\sc(=O)n3n2CCCC3)c(F)cc1Cl [Fluthiacet-methyl]
- Resistance factor G399A (IC50 mutant / IC50 sensitive PPO2) [1]: 3567
- Resistance factor ΔG210 (IC50 mutant / IC50 sensitive PPO2) [2]: 94
- Resistance factor R128L (IC50 mutant / IC50 sensitive PPO2) [3]: 4

Compound: CCOc1cc(Oc2ccc(C(F)(F)F)cc2Cl)ccc1[N+](=O)[O-] [Oxyfluorfen]
- Resistance factor G399A (IC50 mutant / IC50 sensitive PPO2) [1]: 18548
- Resistance factor ΔG210 (IC50 mutant / IC50 sensitive PPO2) [2]: 982
- Resistance factor R128L (IC50 mutant / IC50 sensitive PPO2) [3]: 74

Compound: CCOC(=O)C(C)OC(=O)c1cc(Oc2ccc(C(F)(F)F)cc2Cl)ccc1[N+](=O)[O-] (stereo not shown) [Lactofen]
- Resistance factor G399A (IC50 mutant / IC50 sensitive PPO2) [1]: 28167
- Resistance factor ΔG210 (IC50 mutant / IC50 sensitive PPO2) [2]: 18271
- Resistance factor R128L (IC50 mutant / IC50 sensitive PPO2) [3]: 2812

Compound: Cc1nn(-c2cc(CC(Cl)C(=O)O)c(Cl)cc2F)c(=O)n1C(F)F (stereo not shown) [Carfentrazone]
- Resistance factor G399A (IC50 mutant / IC50 sensitive PPO2) [1]: 116
- Resistance factor ΔG210 (IC50 mutant / IC50 sensitive PPO2) [2]: 3957
- Resistance factor R128L (IC50 mutant / IC50 sensitive PPO2) [3]: 3

Compound: O=C(O)c1cc(Oc2ccc(C(F)(F)F)cc2Cl)ccc1[N+](=O)[O-] [Acifluorfen]
- Resistance factor G399A (IC50 mutant / IC50 sensitive PPO2) [1]: >541
- Resistance factor ΔG210 (IC50 mutant / IC50 sensitive PPO2) [2]: >541
- Resistance factor R128L (IC50 mutant / IC50 sensitive PPO2) [3]: >541

Compound: C=CCOC(=O)C(C)(C)OC(=O)c1cc(-n2c(=O)cc(C(F)(F)F)n(C)c2=O)ccc1Cl [Butafenacil]
- Resistance factor G399A (IC50 mutant / IC50 sensitive PPO2) [1]: 741
- Resistance factor ΔG210 (IC50 mutant / IC50 sensitive PPO2) [2]: 17578
- Resistance factor R128L (IC50 mutant / IC50 sensitive PPO2) [3]: 23

Compound: CC(C)Oc1cc(-n2nc(C(C)(C)C)oc2=O)c(Cl)cc1Cl [Oxadiazon]
- Resistance factor G399A (IC50 mutant / IC50 sensitive PPO2) [1]: 285
- Resistance factor ΔG210 (IC50 mutant / IC50 sensitive PPO2) [2]: 151
- Resistance factor R128L (IC50 mutant / IC50 sensitive PPO2) [3]: 1

Compound: C#CCN1C(=O)COc2cc(F)c(N3C(=O)C4=C(CCCC4)C3=O)cc21 [Flumioxazin]
- Resistance factor G399A (IC50 mutant / IC50 sensitive PPO2) [1]: 868
- Resistance factor ΔG210 (IC50 mutant / IC50 sensitive PPO2) [2]: 3157
- Resistance factor R128L (IC50 mutant / IC50 sensitive PPO2) [3]: 2631
